Key:
[1] = gamma densitometer
[2] = wn = mass fraction of the nth substance listed; details: Liquid, gamma densitometer

C1CCCCC1 [cyclohexane]
[1], 5000 kPa, Fluid (supercritical or subcritical phases)
Details	mass density [kg/m3]
287 K	788.3
305.9 K	763.7
324.9 K	752.1
351 K	731.8
375 K	704.3
394.8 K	686.7
416.6 K	666.5
431.9 K	646.2
452.4 K	620.2
475.1 K	595.5
488.4 K	573.5
504.4 K	546.3
513.9 K	527.5
522.6 K	510.3
531.9 K	487
543 K	454.5
553.2 K	426.2
561.7 K	365.6
572.1 K	259.5
584.2 K	187
592.5 K	167
603.6 K	149.3
618.8 K	133
635 K	118.3
654.2 K	109.8
672.3 K	96.5
687.5 K	92
698.5 K	89.9

N#N [nitrogen]
mass density [kg/m3], [1], Gas
Details	293.2 K	473.2 K
100 kPa	1.15	0.68
600 kPa	7.36	3.79
1000 kPa	–	8
1100 kPa	11.22	–
1600 kPa	17.77	11.8
2100 kPa	23.64	14.69
2600 kPa	27.88	–
3100 kPa	33.96	21.05
3600 kPa	40.54	–
4000 kPa	–	27.65
4100 kPa	46.43	–
4600 kPa	53.49	–
5100 kPa	58.28	–
5600 kPa	62.2	–
6000 kPa	69.11	–

CCCCCCCC [octane] + CCCCCCC
[2]
Details	mass density [kg/m3]
303.1 K, 5100 kPa, w2 = 0.5	686.2
313.3 K, 5100 kPa, w2 = 0.5	678.1
323 K, 5100 kPa, w2 = 0.5	670
332.7 K, 5100 kPa, w2 = 0.5	663.3
344.1 K, 5100 kPa, w2 = 0.5	655.9
353.2 K, 5100 kPa, w2 = 0.5	645.5
362.9 K, 5100 kPa, w2 = 0.5	638.9
372.3 K, 5100 kPa, w2 = 0.5	632.3
374.7 K, 3300 kPa, w2 = 0.255	633.2
374.8 K, 8000 kPa, w2 = 0.255	640.4
380.5 K, 3200 kPa, w2 = 0.51	619.9
380.5 K, 8700 kPa, w2 = 0.51	631.1
383.2 K, 5100 kPa, w2 = 0.5	623.2
393 K, 5100 kPa, w2 = 0.5	611.8
405.1 K, 5100 kPa, w2 = 0.5	604.3
413.8 K, 5100 kPa, w2 = 0.5	592.5
424.2 K, 5100 kPa, w2 = 0.5	584.4
424.4 K, 4900 kPa, w2 = 0.51	582.4
424.5 K, 7200 kPa, w2 = 0.51	588
429.4 K, 3500 kPa, w2 = 0.255	584
429.4 K, 8300 kPa, w2 = 0.255	592.3
433.2 K, 5100 kPa, w2 = 0.5	573.5
443 K, 5100 kPa, w2 = 0.5	560.6
453.1 K, 5100 kPa, w2 = 0.5	554.4
464.5 K, 5100 kPa, w2 = 0.5	545.2
466.6 K, 3200 kPa, w2 = 0.51	535.5
466.7 K, 8600 kPa, w2 = 0.51	554.2
473.6 K, 5100 kPa, w2 = 0.5	531.6
475.8 K, 4400 kPa, w2 = 0.255	538.4
475.9 K, 8500 kPa, w2 = 0.255	554.4
484.2 K, 5100 kPa, w2 = 0.5	524
492.8 K, 5100 kPa, w2 = 0.5	508
503.1 K, 5100 kPa, w2 = 0.5	495.9
513.2 K, 5100 kPa, w2 = 0.5	483.6
518 K, 4900 kPa, w2 = 0.51	479.1
518 K, 7500 kPa, w2 = 0.51	494.8
522.4 K, 5100 kPa, w2 = 0.5	470.1
525.5 K, 4700 kPa, w2 = 0.255	473.6
525.5 K, 7300 kPa, w2 = 0.255	493.5
533 K, 5100 kPa, w2 = 0.5	451.2
543.3 K, 5100 kPa, w2 = 0.5	437.7
549.3 K, 5400 kPa, w2 = 0.51	427.9
549.4 K, 8700 kPa, w2 = 0.51	461.2
553 K, 5100 kPa, w2 = 0.5	415.1
557.2 K, 5300 kPa, w2 = 0.255	427.1
557.2 K, 8200 kPa, w2 = 0.255	460.9
563.5 K, 5100 kPa, w2 = 0.5	394
575.1 K, 5100 kPa, w2 = 0.5	372.9
583.8 K, 5100 kPa, w2 = 0.5	348.2
591.2 K, 5100 kPa, w2 = 0.5	319

O [water]
[1], Liquid
Details	mass density [kg/m3]
286 K, 3000 kPa	1000.7
288.3 K, 5000 kPa	1001.4
303.5 K, 5000 kPa	996.5
305 K, 3000 kPa	996.2
322.6 K, 3000 kPa	988.4
324.8 K, 5000 kPa	990.7
343.4 K, 3000 kPa	977.7
344.3 K, 5000 kPa	981.8
356.4 K, 3000 kPa	969
358.6 K, 5000 kPa	966.8
372.3 K, 5000 kPa	957.1
374.7 K, 3000 kPa	962.3
384 K, 5000 kPa	947
391.2 K, 3000 kPa	945
393.6 K, 5000 kPa	938.5
403.8 K, 5000 kPa	932.6
412.5 K, 3000 kPa	927.7
414.2 K, 5000 kPa	923
423.2 K, 5000 kPa	915.2
423.8 K, 3000 kPa	920.4
432.8 K, 5000 kPa	903.3
442.5 K, 3000 kPa	899.6
442.7 K, 5000 kPa	893.8
452.6 K, 5000 kPa	884.3
462 K, 5000 kPa	876.7
462.5 K, 3000 kPa	880.9
471.4 K, 3000 kPa	873.1
474.3 K, 5000 kPa	864.5
483.9 K, 3000 kPa	858.3
484.1 K, 5000 kPa	854.6
491.4 K, 5000 kPa	839.5
492.5 K, 3000 kPa	841.7
500.4 K, 3000 kPa	827.9
502.5 K, 5000 kPa	824.9
511 K, 5000 kPa	814.1

Reference: the NIST ThermoML archive (doi:10.1021/je500314x)
